Laboratory results published in patent US20250019400A1, “POLYPEPTIDE AND COSMETIC COMPOSITION OR PHARMACEUTICAL COMPOSITION AND USE THEREOF” (SHENZHEN WINKEY TECHNOLOGY CO., LTD, priority 2022, published 2025).

Tested on: smooth muscle contraction in ileum
Assay: Muscle contraction inhibition experiment (acetylcholine-induced smooth muscle contraction in isolated ileum)
Design: species or system SD rats
Details: after acetylcholine, rat ileum
Text: 10 week old female SD rats weighing 220 g-260 g.
HW-400S constant temperature smooth muscle trough, BL-420E biological function experimental system, tension transducer, and other instruments as conventional experimental instruments.
acetylcholine chloride (Shanghai Yuanye), chloral hydrate (Shanghai Macklin).
• Acetyl octapeptide-3(Ac-Glu-Glu-Met-Gln-Arg-Arg-Ala-Asp-NH2), at a test concentration of 25 ppm, 50 ppm, 100 ppm, and 200 ppm, respectively; • Acetyl hexapeptide-30(Ac-Glu-Asp-Tyr-Tyr-Arg-Leu-NH2), at a test concentration of 25 ppm, 50 ppm, 100 ppm, and 200 ppm, respectively; • the peptide (4), at a test concentration of 25 ppm, 50 ppm, 100 ppm, and 200 ppm, respectively; • the peptide (8), at a test concentration of 25 ppm, 50 ppm, 100 ppm, and 200 ppm, respectively; • the peptide (32), at a test concentration of 100 ppm, 200 ppm, 400 ppm, and 800 ppm, respectively.
The experimental rats were fasted except for water for 12 hours before the experiment. 10% chloral hydrate was injected intraperitoneally into the rats at a dosage of 0.1 mL/25 g, and after the rats were anesthetized, the abdominal cavity was cut open to expose the enlarged cecum. A segment of ileum was taken out from the ileocecal region and washed clean in a tyrode's solution pre-bubbled with oxygen for 10 min, and several 4 cm long segments of ileum were cut and incubated in a tyrode's solution at 4° C. for subsequent use; and both ends of the ileum were tied partially and knotted with cotton threads to form a loop.
The HW-400S constant temperature smooth muscle trough and the BL-420E biological function experimental system were turned on, the tension transducer was connected to channel 1, the incubation temperature was adjusted to 37° C., the instruments were preheated for 0.5 hours, and oxygen was bubbled for more than 10 min. One end of the ileum segment is fixed to the intake bracket port with a cotton thread, and the other end thereof is connected to the tension transducer. The position and height of the transducer were appropriately adjusted to place the excised ileum segment in the center of the smooth muscle trough and then record of ileum activity was started.
After the muscle contraction was stabilized, acetylcholine with a final concentration of 0.1-1 μg/mL was added until a high and stable waveform appears in the muscle activity, and the action lasted for 5 minutes as the initial control. After balancing for 5 minutes, the samples to be tested were added respectively. Each time the test drug was replaced, the ileum segment was replaced with a new one, and relevant data was recorded by the instruments. The inhibition rate of smooth muscle contraction in ileum was calculated according to the following formula:
Inhibition rate of smooth muscle contraction in ileum=(contraction force after acetylcholine administration−contraction force after test sample administration)/contraction force after acetylcholine administration×100%
The experimental data was represented by mean standard deviation (Mean±SD).

Substance | Inhibition rate of smooth muscle contraction in ileum (25 ppm, Mean±SD) [%] | Inhibition rate of smooth muscle contraction in ileum (50 ppm, Mean±SD) [%] | Inhibition rate of smooth muscle contraction in ileum (100 ppm, Mean±SD) [%] | Inhibition rate of smooth muscle contraction in ileum (200 ppm, Mean±SD) [%] | Inhibition rate of smooth muscle contraction in ileum (800 ppm) [%]
Ac-Glu-Glu-Met-Gln-Arg-Arg-Ala-Asp-NH2 (Ac-EEMQRRAD-NH2) [Acetyl octapeptide-3, polypeptide in the prior art used as comparison sample, reference compound] | 10.2 ± 1.23 | 32.34 | 47.49 | 58.67 | 
Ac-Glu-Asp-Tyr-Tyr-Arg-Leu-NH2 (Ac-EDYYRL-NH2) [Acetyl hexapeptide-30, polypeptide in the prior art used as comparison sample, reference compound] | 0.00 ± 2.45 | 0.47 ± 2.09 | 2.73 ± 0.66 | 48.09 | 
Ac-Trp-Ala-Ala-Pro-Phe-Leu-Arg-Ala-NH2 (Ac-WAAPFLRA-NH2) [(32)] |  |  |  |  | 44.41
Ac-Ser-Met-Gly-Ala-Leu-Ala-NH2 (Ac-SMGALA-NH2) [Peptide (8)] | 31.99 | 34.35 | 56.42 | 67.96 | 
Ac-Val-Lys-Val-Leu-Gln-Trp-NH2 (Ac-VKVLQW-NH2) [Peptide (4)] | 49.78 | 62.40 | 66.72 | 76.88 | 
